Experiment [1] addresses T1, htau24 (Homo sapiens, UniProt P10636).
T1 construct: made in house; host or cells: E. coli
Description: Thioflavine S assay, inhibition of PHF formation, htau24. In kind it is biochemical. Particulars: for IC50: ThS fluorescence, read-out: Inhibition of tau aggregation IC50, hTau24; for inhibition at 60 µM: read-out: inhibition of PHF formation, htau24; for effect on PHF formation, htau24: compared to htau23. The procedure:
Assembly of synthetic PHFs of tau protein (K19, 10 μM) was performed at 37° C. in the presence of polyanions (heparin; 5 μM) in 50 mM NH4Ac, pH 6.8. Assembly was followed either qualitatively by electron microscopy or quantitatively by fluorescence assay using thioflavine S. PHF-formation of tau isoforms htau23 and htau24 was carried out in PBS-buffer pH 7.4, 50 μM protein, and 12.5 μM heparin. The samples were incubated at 50° C. for 10 days. In the case of htau24 and K18, DTT was added at a final concentration of 1 mM each day in order to avoid intra-molecular disulfide crosslinking (Barghorn et al., 2000).

For experiment [2], the target named is T2, PHFs from K19 (Homo sapiens, UniProt P10636).
T2 construct: construct K19 containing three repeats; made in house; host or cells: E. coli
T2 sequence (P10636 with tags, fused parts or gaps isoform P10636-2 limits assumed): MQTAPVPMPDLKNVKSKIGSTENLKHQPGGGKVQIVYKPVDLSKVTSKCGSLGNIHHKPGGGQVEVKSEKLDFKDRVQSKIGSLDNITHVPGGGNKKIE
Put plainly: Thioflavine S assay, depolymerisation of pre-formed PHFs, K19. In kind it is biochemical. The procedure:
Depolymerisation of PHFs was monitored by the thioflavine S fluorescence. 60 μM of each compound was tested for its ability to depolymerise pre-formed PHFs. 50 mM NH4Ac, 10 μM PHF (K19), 60 μM compound and 5 μM heparin were mixed in 50 μl volume in a 384 well plate (black microtiter 384 plate round well, ThermoLabsystems, Dreiich, Germany) and incubated overnight at 37° C. As a control the reaction mixture without compound was treated in the same way.
After incubation thioflavine S was added to the buffer to a final concentration of 20 μM and the signal was measured at excitation at 440 nm and emission at 521 nm in a spectrofluorimeter (Ascent; Labsystems, Frankfurt).
(§1) The ThS assay was used to analyse the ability of the five compounds (see Example 4) to depolymerise pre-formed PHFs made from the repeat domain constructs K19 and K18 as well as from isoforms htau23 and htau24, containing 3 or 4 repeats, respectively.
The depolymerisation of K19 filaments (FIG. 4A) followed a similar concentration dependence as the inhibition experiment, with consistently similar or slightly higher DC50 values than the corresponding IC50 concentrations (Table 2). The ratios of IC50/DC50 range from 0.2-1.2. […] Here, too, the concentration dependence for K19 was steeper than for K18 (compare FIGS. 4A, B), similar to that of assembly inhibition (FIGS. 2A, B).
Tau constructs and isoforms K19, K18, hTau23, hTau24 (10 μM) were first aggregated into PHFs for 48 hours in the presence of 2.5 μM heparin (except K18/ΔK280) and the polymers separated from the soluble tau by centrifugation of 1 h at 100,000 g, redissolved and then exposed to the inhibitors overnight at 37° C. at the indicated concentrations (range 0.001-200 μM). The compounds are capable of disassembling PHFs with varying efficiencies (see Table 2).

In experiment [3] the target is T3, PHFs from htau24 (Homo sapiens, UniProt P10636).
T3 construct: made in house; host or cells: E. coli
T3 sequence (P10636 1-383 isoform P10636-6): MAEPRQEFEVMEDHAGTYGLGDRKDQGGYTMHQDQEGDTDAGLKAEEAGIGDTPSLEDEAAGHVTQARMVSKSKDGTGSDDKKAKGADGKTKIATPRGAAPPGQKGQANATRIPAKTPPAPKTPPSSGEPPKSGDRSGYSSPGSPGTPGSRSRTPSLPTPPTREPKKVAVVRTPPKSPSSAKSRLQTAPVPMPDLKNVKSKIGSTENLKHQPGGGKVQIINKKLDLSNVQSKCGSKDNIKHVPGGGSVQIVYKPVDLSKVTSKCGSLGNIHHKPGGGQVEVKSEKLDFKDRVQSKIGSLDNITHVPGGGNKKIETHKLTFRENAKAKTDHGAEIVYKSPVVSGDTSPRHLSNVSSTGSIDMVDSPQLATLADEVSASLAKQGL
Description: Thioflavine S assay, depolymerisation of pre-formed PHFs, htau24. It is filed as biochemical. The procedure:
as §1
Tau constructs and isoforms K19, K18, hTau23, hTau24 (10 μM) were first aggregated into PHFs for 48 hours in the presence of 2.5 μM heparin (except K18/ΔK280) and the polymers separated from the soluble tau by centrifugation of 1 h at 100,000 g, redissolved and then exposed to the inhibitors overnight at 37° C. at the indicated concentrations (range 0.001-200 μM).

The subject of experiment [4] is K18/ΔK280/Y310W. Description: Tryptophan fluorescence inhibition assay, K18/ΔK280/Y310W. It is filed as biochemical, human. Particulars: 60 μM compound. From the text:
In order to exclude a possible distortion of the data by the dye the results of the ThS assays can be confirmed by a tryptophan fluorescence assay (Li et al., 2002). It allows the detection of the molecular environment of a tryptophan introduced instead of tyrosine 310 whose emission maximum is sensitive to the burial in a more hydrophobic surrounding upon PHF formation. Therefore the mutants K19/Y310W (FIG. 1I) and K18/Y310W (FIG. 1H) that contain a single tryptophan within the core of the PHF structure were created. In the soluble protein the emission maximum lies at ˜354 nm, whereas it shifts to 340 nm upon PHF formation (FIG. 3A, compare first and second entry). […]
The fluorescence experiments were performed on a Spex Fluoromax spectrophotometer (Polytec, Waldbronn, Germany) using 3 mm×3 mm micro cuvettes from Hellma (Mühlheim, Germany) with 20 μl sample volumes. […] The slit widths were 5 nm, the integration time was 0.25 second, and the photomultiplier voltage was 950 V. For fluorescence inhibition assay, 60 μM compounds were incubated with K19/Y310W construct (10 μM) or K18/ΔK280/Y310W and heparin (2.5 μM) in PBS, pH 7.4 three days at 37° C. […]
(A-C) fluorescence emission maximum of the single tryptophan W310 inserted by site-directed mutagenesis into tau constructs K19 (FIG. 3A), K18 (FIG. 3B) and K18/ΔK280 (FIG. 3C). […]

Where [5] appears, read: ThS fluorescence, overnight 37° C., read-out: Depolymerisation of PHFs DC50, K19.
The mark [6] stands for this setting: ThS fluorescence, pre-formed PHFs; read-out: Depolymerisation of PHFs DC50, hTau24.

Read-outs that look alike come from different tables or passages of the source. Where only a bound is given, the exact number is not on record here.

T1 sequence (P10636 1-383 isoform P10636-6): as above

Consider `COc1cccc2c1C(=O)c1c(O)c3c(c(O)c1C2=O)CC(O)(C(=O)CO)CC3OC1CC(N)C(O)C(C)O1` (centres unmarked) [Adriamycin, 10-(4-Amino-5-hydroxy-6-methyl-tetrahydro-pyran-2-yloxy)-6,8,11-trihydroxy-8-(2-hydroxyethanoyl)-1-methoxy-7,8,9,10-tetrahydro-naphthacene-5,12-dione, reference compound], for which the IC50 (usually the concentration that gives 50% inhibition) in experiment [1] turned out to be 2.7 µM. Further, the DC50 in experiment [2] (read-out: Depolymerisation of PHFs DC50, K19, ThS fluorescence, overnight 37° C.) was 27 µM; in experiment [3] (read-out: Depolymerisation of PHFs DC50, hTau24; ThS fluorescence, pre-formed PHFs), greater than 60 µM.
Consider `COc1cccc2c1C(=O)c1c(O)c3c(c(O)c1C2=O)CC(O)(C(C)=O)CC3OC1CC(N)C(O)C(C)O1` (centres unmarked) [Daunorubicin, 8-Acetyl-10-(4-amino-5-hydroxy-6-methyl-tetrahydro-pyran-2-yloxy)-6,8,11-trihydroxy-1-methoxy-7,8,9,10-tetrahydro-naphthacene-5,12-dione, reference compound], for which, in experiment [1], the IC50 is 3.4 µM and the inhibition (commonly how much of the control response was suppressed) at 60 µM is 70 to 90%. Moreover, the DC50 in experiment [2] (setting [5]) turned out to be 3.1 µM. The “depolymerisation of htau24 filaments” value in experiment [3] was “only weak PHF breakers”. Also, the DC50 in experiment [3] (setting [6]) is greater than 60 µM.
In the case of `Cc1cc(O)c2c(c1)C(=O)c1cc(O)cc(O)c1C2=O` [Emodin, 1,3,8-Trihydroxy-6-methyl-anthraquinone], in experiment [1] (60 μM compound), the inhibition at 60 µM is 70 to 90%. Moreover, the 50% inhibitory concentration (IC50) in experiment [1] stood at 1.8 µM. The DC50 in experiment [2] (setting [5]) is 2 µM; in experiment [3] (setting [6]), greater than 60 µM. In addition, the “depolymerisation of htau24 filaments” value in experiment [3] was “only weak PHF breakers”.
For the compound `O=C(c1ccccc1)c1ccc(O)c(O)c1O` [PHF005, 1-Phenyl-1-(2,3,4-trihydroxy-phenyl)-methanone], the IC50 in experiment [1] was greater than 100 µM. For the same compound, the “effect on PHF formation, htau24” value in experiment [1] is “only a small effect”. Also, the DC50 is 9.4 µM in experiment [2] (setting [5]) and 10.8 µM in experiment [3] (setting [6]). The “ranking as inhibitor, K18/ΔK280, Trp fluorescence” value in experiment [4] is given as “best”.
On to `O=C1c2ccc(O)c(O)c2C(=O)c2c(O)ccc(O)c21` [PHF016, 1,2,5,8-Tetrahydroxy-anthraquinone], for which, in experiment [1], the 50% inhibitory concentration (IC50) was greater than 60 µM and the “effect on PHF formation, htau24” value is “only a small effect”. For the same compound, the DC50 in experiment [2] (setting [5]) was determined as 7.8 µM. The “ranking as inhibitor, K18/ΔK280, Trp fluorescence” value in experiment [4] is reported as “worst”. Moreover, the DC50 in experiment [3] (setting [6]) amounted to 39.2 µM.

Values taken from patent US20060223812A1, “Treating neurodegenerative conditions” (MAX-PLANCK-GESELLSCHAFT ZUR FORDERUNGDER WISSENSCHAFTEN, …, priority 2004, published 2006).
